US9730937B2, “RAF kinase modulator compounds and methods of use thereof” (AMBIT BIOSCIENCES CORPORATION, priority 2008, dated 2017)
Structures can show the parent of a compound that is named as a salt. Where two headings read alike, the source gives them in different places.

Experiments:
mutant BRAF kinase = mutant BRAF kinase (Homo sapiens (Human), UniProt P15056, V600E); settings: read-out: BRAF V600E Kd, class symbols
[1] = tested on: panel of 290 distinct kinases (321 in the larger panel), excluding mutant variants; settings: kinase selectivity score, class symbols
Experimental: The liganded beads were blocked with excess biotin and washed with blocking buffer (SeaBlock (Pierce), 1% BSA, 0.05% Tween 20, 1 mM DTT) to remove unbound ligand and to reduce non-specific binding. […] Test compounds were prepared as 100× stocks in DMSO and rapidly diluted into the aqueous environment. DMSO was added to control assays lacking a test compound. Primary screen interactions were performed in polypropylene 384-well plates in a final volume of 34 μL, while Kd determinations were performed in polystyrene 96-well plates in a final volume of 135 μL. […] The kinase concentration in the eluates was measured by quantitative PCR. Each kinase was tested individually against each compound. KdS were determined using eleven serial threefold dilutions. A selectivity score, which is a quantitative measure of selectivity of a compound against a panel of enzymes, may be calculated for a compound by dividing the number of enzymes for which a compound meets a set criteria, (for example, a binding constant of 100 nM or less), by the total number of enzymes tested. […] (Note, for those compounds tested in a larger kinase panel, as indicated by an asterisk (*) next to the S35 score, the divisor is 321 (i.e. the larger panel contains 321 distinct kinases, excluding mutant variants.)).

[2] = value marked * (larger kinase panel)

mutant BRAF kinase, sequence (P15056 whole entry V600E): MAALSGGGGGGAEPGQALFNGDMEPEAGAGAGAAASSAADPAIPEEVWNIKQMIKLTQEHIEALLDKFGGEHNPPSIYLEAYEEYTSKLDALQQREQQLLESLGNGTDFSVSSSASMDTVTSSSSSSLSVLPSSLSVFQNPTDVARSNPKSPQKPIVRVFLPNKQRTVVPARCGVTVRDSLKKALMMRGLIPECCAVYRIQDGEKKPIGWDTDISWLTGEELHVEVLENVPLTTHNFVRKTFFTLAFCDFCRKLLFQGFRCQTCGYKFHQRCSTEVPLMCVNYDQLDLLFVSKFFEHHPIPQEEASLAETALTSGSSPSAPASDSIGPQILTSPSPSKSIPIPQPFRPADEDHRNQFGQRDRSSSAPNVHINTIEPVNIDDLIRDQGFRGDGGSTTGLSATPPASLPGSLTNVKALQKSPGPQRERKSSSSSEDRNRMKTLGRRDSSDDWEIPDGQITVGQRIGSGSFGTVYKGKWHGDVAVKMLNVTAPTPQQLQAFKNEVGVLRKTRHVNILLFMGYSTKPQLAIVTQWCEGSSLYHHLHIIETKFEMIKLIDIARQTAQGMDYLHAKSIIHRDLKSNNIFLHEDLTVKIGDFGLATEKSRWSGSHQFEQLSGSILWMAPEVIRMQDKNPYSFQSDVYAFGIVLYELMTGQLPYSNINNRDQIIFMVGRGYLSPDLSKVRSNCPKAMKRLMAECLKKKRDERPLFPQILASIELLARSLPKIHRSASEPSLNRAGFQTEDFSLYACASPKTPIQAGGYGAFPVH

Structure (SMILES) | Kd (mutant BRAF kinase) [nM] | S35 ([1]; 290 distinct kinases) | S35 [1, 2]
CC(C)(C)c1cc(NC(=O)Nc2cccc(Oc3ncnc4cc5c(cc34)OCCO5)c2)no1 [Ex 14, 1-(5-tert-butylisoxazol-3-yl)-3-[3-(7,8-dihydro-[1,4]dioxino[2,3-g]quinazolin-4-yloxy)phenyl]urea hydrochloride] | < 250 | C (0.20 < C ≦ 0.40) | 
COCCOc1cc2c(Oc3cccc(NC(=O)Nc4cc(C(C)(C)C)on4)c3)ncnc2cc1OC [Ex 15, 1-(5-tert-butylisoxazol-3-yl)-3-{3-[7-methoxy-6-(2-methoxyethoxy)quinazolin-4-yloxy]phenyl}urea hydrochloride] | < 250 | C (0.20 < C ≦ 0.40) | 
COc1cc2ncnc(Oc3cccc(NC(=O)Nc4cc(C(C)(C)C)on4)c3)c2cc1OCCN1CCC(CO)CC1 [Ex 17, 1-(5-tert-butylisoxazol-3-yl)-3-(3-(6-(2-(4-(hydroxymethyl)piperidin-1-yl)ethoxy)-7-methoxyquinazolin-4-yloxy)phenyl)urea] | < 250 | C (0.20 < C ≦ 0.40) | 
COc1cc2ncnc(Oc3cccc(NC(=O)Nc4cc(C(C)(C)C)on4)c3)c2cc1OCCN1CCN(C)CC1 [Ex 18, 1-(5-tert-butylisoxazol-3-yl)-3-(3-(7-methoxy-6-(2-(4-methylpiperazin-1-yl)ethoxy)quinazolin-4-yloxy)phenyl)urea] | < 250 | D (D > 0.40) | 
COc1cc2ncnc(Oc3cccc(NC(=O)Nc4cc(C(C)(C)C)on4)c3)c2cc1OCCN1CCN(CCO)CC1 [Ex 19, 1-(5-tert-butylisoxazol-3-yl)-3-(3-(6-(2-(4-(2-hydroxyethyl)piperazin-1-yl)ethoxy)-7-methoxyquinazolin-4-yloxy)phenyl)urea] | < 250 | D (D > 0.40) | 
COc1cc2ncnc(Oc3cccc(NC(=O)Nc4cc(C(C)(C)C)on4)c3)c2cc1OCCN1CCOCC1 [Ex 20, 1-(5-tert-butylisoxazol-3-yl)-3-(3-(7-methoxy-6-(2-morpholinoethoxy)quinazolin-4-yloxy)phenyl)urea] | < 250 | C (0.20 < C ≦ 0.40) | 
COc1cc2ncnc(Oc3cccc(NC(=O)Nc4cc(C(C)(C)C)on4)c3)c2cc1OCCCN1CCN(C)CC1 [Ex 21, 1-(5-tert-butylisoxazol-3-yl)-3-(3-(7-methoxy-6-(3-(4-methylpiperazin-1-yl)propoxy)quinazolin-4-yloxy)phenyl)urea] | < 250 | D (D > 0.40) | 
COc1cc2ncnc(Oc3cccc(NC(=O)Nc4cc(C(C)(C)C)on4)c3)c2cc1OCCCN1CCCCC1 [Ex 23, 1-(5-tert-butylisoxazol-3-yl)-3-(3-(7-methoxy-6-(3-(piperidin-1-yl)propoxy)quinazolin-4-yloxy)phenyl)urea] | < 250 | D (D > 0.40) | 
COc1cc2ncnc(Oc3cccc(NC(=O)Nc4cc(C(C)(C)C)on4)c3)c2cc1OCCCN1CCC(CO)CC1 [Ex 24, 1-(5-tert-butylisoxazol-3-yl)-3-(3-(6-(3-(4-(hydroxymethyl)piperidin-1-yl)propoxy)-7-methoxyquinazolin-4-yloxy)phenyl)urea] | < 250 | D (D > 0.40) | 
COc1cc2ncnc(Oc3cccc(NC(=O)Nc4cc(C(C)(C)C)on4)c3)c2cc1OCCCN1CCN(S(C)(=O)=O)CC1 [Ex 25, 1-(5-tert-butylisoxazol-3-yl)-3-(3-(7-methoxy-6-(3-(4-(methylsulfonyl)piperazin-1-yl)propoxy)quinazolin-4-yloxy)phenyl)urea] | < 250 | D (D > 0.40) | 
COc1cc2c(Oc3cccc(NC(=O)Nc4cc(C(C)(C)C)on4)c3)ncnc2cc1OCCCN1CCOCC1 [Ex 27, 1-(5-tert-butylisoxazol-3-yl)-3-(3-(6-methoxy-7-(3-morpholinopropoxy)quinazolin-4-yloxy)phenyl)urea] | < 250 | D (D > 0.40) | 
COc1cc2c(Oc3cccc(NC(=O)Nc4cc(C(C)(C)C)on4)c3)ncnc2cc1OCCCN1CCC(CO)CC1 [Ex 29] | < 250 | D (D > 0.40) | 
COc1cc2c(Oc3cccc(NC(=O)Nc4cc(C(C)(C)C)on4)c3)ncnc2cc1OCCCN1CCC(O)C1 (stereo not drawn) [Ex 31, 1-(5-tert-butyl-isoxazol-3-yl)-3-(3-{7-[3-(3-hydroxy-pyrrolidin-1-yl)-propoxy]-6-methoxy-quinazolin-4-yloxy}-phenyl)-urea] | < 250 | D (D > 0.40) | 
COc1cc2c(Oc3cccc(NC(=O)Nc4cc(C(C)(C)C)on4)c3)ncnc2cc1OCCCN1CCN(S(C)(=O)=O)CC1 [Ex 32, 1-(5-tert-butylisoxazol-3-yl)-3-(3-(6-methoxy-7-(3-(4-(methylsulfonyl)piperazin-1-yl)propoxy)quinazolin-4-yloxy)phenyl)urea] | < 250 | D (D > 0.40) | 
COc1cc2c(Oc3cccc(NC(=O)Nc4cc(C(C)(C)C)on4)c3)ncnc2cc1OCCCN1CC[C@H](O)C1 [Ex 33, (S)-1-(5-tert-butylisoxazol-3-yl)-3-(3-(7-(3-(3-hydroxypyrrolidin-1-yl)propoxy)-6-methoxyquinazolin-4-yloxy)phenyl)urea] | < 250 |  | D* (D > 0.40)
COc1cc2c(Oc3cccc(NC(=O)Nc4cc(C(C)(C)C)on4)c3)ncnc2cc1OCCCN1CC[C@@H](O)C1 [Ex 34, (R)-1-(5-tert-Butylisoxazol-3-yl)-3-(3-(7-(3-(3-hydroxypyrrolidin-1-yl)propoxy)-6-methoxyquinazolin-4-yloxy)phenyl)urea] | < 250 |  | D* (D > 0.40)
COc1cc2c(Oc3cccc(NC(=O)Nc4cc(C(C)(C)C)on4)c3)ncnc2cc1OCCN1CCOCC1 [Ex 35, 1-(5-tert-butylisoxazol-3-yl)-3-(3-(6-methoxy-7-(2-morpholinoethoxy)quinazolin-4-yloxy)phenyl)urea] | < 250 | C (0.20 < C ≦ 0.40) | 
COc1cc2c(Oc3cccc(NC(=O)Nc4cc(C(C)(C)C)on4)c3)ncnc2cc1OCCN1CCN(C)CC1 [Ex 36, 1-(5-tert-butylisoxazol-3-yl)-3-(3-(6-methoxy-7-(2-(4-methylpiperazin-1-yl)ethoxy)quinazolin-4-yloxy)phenyl)urea] | < 250 | C (0.20 < C ≦ 0.40) | 
COc1cc2c(Oc3cccc(NC(=O)Nc4cc(C(C)(C)C)on4)c3)ncnc2cc1OCCN1CCC(CO)CC1 [Ex 37, 1-(5-tert-butyl-isoxazol-3-yl)-3-(3-{7-[2-(4-hydroxymethyl-piperidin-1-yl)-ethoxy]-6-methoxy-quinazolin-4-yloxy}-phenyl)-urea] | < 250 | C (0.20 < C ≦ 0.40) | 
COc1cc2c(Oc3cccc(NC(=O)Nc4cc(C(C)(C)C)on4)c3)ncnc2cc1OCCN1CCN(CCO)CC1 [Ex 38, 1-(5-tert-butylisoxazol-3-yl)-3-(3-(7-(2-(4-(2-hydroxyethyl)piperazin-1-yl)ethoxy)-6-methoxyquinazolin-4-yloxy)phenyl)urea] | < 250 | D (D > 0.40) | 
COc1cc2c(Oc3cccc(NC(=O)Nc4cc(C(C)(C)C)on4)c3)ncnc2cc1OCCN1CCS(=O)(=O)CC1 [Ex 39, 1-(5-tert-butyl-isoxazol-3-yl)-3-(3-{7-[2-(1,1-dioxo-116-thiomorpholin-4-yl)-ethoxy]-6-methoxy-quinazolin-4-yloxy}-phenyl)-urea] | < 250 | C (0.20 < C ≦ 0.40) | 
COCCOc1ccc2c(Oc3cccc(NC(=O)Nc4cc(C(C)(C)C)on4)c3)ncnc2c1 [Ex 43, 1-(5-tert-butylisoxazol-3-yl)-3-(3-(7-(2-methoxyethoxy)quinazolin-4-yloxy)phenyl)urea] | < 250 | C (0.20 < C ≦ 0.40) | 
COCCOc1cc2c(Sc3cccc(NC(=O)Nc4cc(C(C)(C)C)on4)c3)ncnc2cc1OC [Ex 45, 1-(5-tert-butylisoxazol-3-yl)-3-(3-(7-methoxy-6-(2-methoxyethoxy)quinazolin-4-ylthio)phenyl)urea] | < 250 | C (0.20 < C ≦ 0.40) | 
COc1cc2ncnc(Sc3cccc(NC(=O)Nc4cc(C(C)(C)C)on4)c3)c2cc1OC [Ex 46, 1-(5-tert-butylisoxazol-3-yl)-3-(3-(6,7-dimethoxyquinazolin-4-ylthio)phenyl)urea] | < 250 | C (0.20 < C ≦ 0.40) | 
COCCOc1cc2ncnc(Sc3cccc(NC(=O)Nc4cc(C(C)(C)C)on4)c3)c2cc1OC [Ex 52, 1-(5-tert-butylisoxazol-3-yl)-3-{3-[6-methoxy-7-(2-methoxyethoxy)quinazolin-4-ylthio]phenyl}urea hydrochloride] | < 250 | C (0.20 < C ≦ 0.40) | 
COCCOc1cc2ncnc(Sc3cccc(NC(=O)Nc4cc(C(C)(C)C)on4)c3)c2cc1OCCOC [Ex 53, 1-{3-[6,7-bis(2-methoxyethoxy)quinazolin-4-ylthio]phenyl}-3-(5-tert-butylisoxazol-3-yl)urea hydrochloride] | < 250 | C (0.20 < C ≦ 0.40) | 
CCOc1cc2c(Sc3cccc(NC(=O)Nc4cc(C(C)(C)C)on4)c3)ncnc2cc1OC [Ex 56, 1-(5-tert-butylisoxazol-3-yl)-3-(3-(6-ethoxy-7-methoxyquinazolin-4-ylthio)phenyl)urea] | < 250 | B (0.10 < B ≦ 0.20) | 
COc1cc2ncnc(Sc3cccc(NC(=O)Nc4cc(C(C)(C)C)on4)c3)c2cc1OCCCN1CCCCC1 [Ex 57, 1-(5-tert-butylisoxazol-3-yl)-3-(3-(7-methoxy-6-(3-(piperidin-1-yl)propoxy)quinazolin-4-ylthio)phenyl)urea] | < 250 | C (0.20 < C ≦ 0.40) | 
COc1cc2ncnc(Sc3cccc(NC(=O)Nc4cc(C(C)(C)C)on4)c3)c2cc1OCCCN1CCC(CO)CC1 [Ex 58, 1-(5-tert-butylisoxazol-3-yl)-3-(3-(6-(3-(4-(hydroxymethyl)piperidin-1-yl)propoxy)-7-methoxyquinazolin-4-ylthio)phenyl)urea] | < 250 | D (D > 0.40) | 
COc1cc2ncnc(Sc3cccc(NC(=O)Nc4cc(C(C)(C)C)on4)c3)c2cc1OCCCN1CCN(C)CC1 [Ex 59, 1-(5-tert-butylisoxazol-3-yl)-3-(3-(7-methoxy-6-(3-(4-methylpiperazin-1-yl)propoxy)quinazolin-4-ylthio)phenyl)urea] | < 250 | D (D > 0.40) | 
